According to ChEMBL document CHEMBL1201862, “PubChem BioAssay data set” (2004):
The source made the active and inactive calls.

Experiments:
[1] = biological target: T1, Tyrosine-protein phosphatase non-receptor type 7 (Homo sapiens, UniProt P35236); format: functional
T1 sequence (P35236 whole entry): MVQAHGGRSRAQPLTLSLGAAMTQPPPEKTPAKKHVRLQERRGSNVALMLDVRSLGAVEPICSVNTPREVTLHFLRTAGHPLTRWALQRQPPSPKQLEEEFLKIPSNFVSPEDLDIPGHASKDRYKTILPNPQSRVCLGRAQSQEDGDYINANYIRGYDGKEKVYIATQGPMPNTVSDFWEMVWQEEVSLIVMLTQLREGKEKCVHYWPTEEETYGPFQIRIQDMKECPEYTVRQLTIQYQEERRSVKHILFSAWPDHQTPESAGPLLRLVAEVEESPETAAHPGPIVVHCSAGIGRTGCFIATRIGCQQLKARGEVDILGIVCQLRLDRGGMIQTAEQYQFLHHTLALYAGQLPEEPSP

[2] = biological target: Glyceraldehyde-3-phosphate dehydrogenase (Homo sapiens, UniProt P04406)
Glyceraldehyde-3-phosphate dehydrogenase, sequence (P04406 whole entry): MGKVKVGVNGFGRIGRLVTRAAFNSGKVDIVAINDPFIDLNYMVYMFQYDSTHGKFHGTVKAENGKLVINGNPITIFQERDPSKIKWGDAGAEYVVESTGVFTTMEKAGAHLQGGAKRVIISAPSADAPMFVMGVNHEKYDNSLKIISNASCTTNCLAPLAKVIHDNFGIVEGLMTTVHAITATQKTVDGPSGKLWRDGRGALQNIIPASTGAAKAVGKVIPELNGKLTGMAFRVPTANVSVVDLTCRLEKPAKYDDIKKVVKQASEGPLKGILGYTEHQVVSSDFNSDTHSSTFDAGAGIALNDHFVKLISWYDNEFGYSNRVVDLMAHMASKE

[3] = biological target: T2, Dual specificity protein phosphatase 6 (Rattus norvegicus, UniProt Q64346)
T2 sequence (Q64346 whole entry): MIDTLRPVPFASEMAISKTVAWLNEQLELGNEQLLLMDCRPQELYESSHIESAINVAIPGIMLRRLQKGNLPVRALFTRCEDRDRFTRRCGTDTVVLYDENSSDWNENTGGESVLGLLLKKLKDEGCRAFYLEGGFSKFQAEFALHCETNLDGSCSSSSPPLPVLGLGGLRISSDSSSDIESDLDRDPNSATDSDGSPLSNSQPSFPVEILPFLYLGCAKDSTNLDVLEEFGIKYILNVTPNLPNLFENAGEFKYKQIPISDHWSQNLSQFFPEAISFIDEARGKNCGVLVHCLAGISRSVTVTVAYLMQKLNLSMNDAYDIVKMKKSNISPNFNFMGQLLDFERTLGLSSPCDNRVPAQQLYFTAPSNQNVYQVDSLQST

[4] = biological target: T2, Dual specificity protein phosphatase 6; format: functional
Vero [5] = assay: cells; format: functional, cell-based; conditions: Chlorocebus sabaeus
Vero [6] = assay: cells; format: functional; conditions: Chlorocebus sabaeus
Cytochrome P450 1A2 = biological target: T3, Cytochrome P450 1A2 (Homo sapiens, UniProt P05177);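 also: PubChem cytochrome P450 panel assay, CYP1A2 panel member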
T3 sequence (P05177 whole entry): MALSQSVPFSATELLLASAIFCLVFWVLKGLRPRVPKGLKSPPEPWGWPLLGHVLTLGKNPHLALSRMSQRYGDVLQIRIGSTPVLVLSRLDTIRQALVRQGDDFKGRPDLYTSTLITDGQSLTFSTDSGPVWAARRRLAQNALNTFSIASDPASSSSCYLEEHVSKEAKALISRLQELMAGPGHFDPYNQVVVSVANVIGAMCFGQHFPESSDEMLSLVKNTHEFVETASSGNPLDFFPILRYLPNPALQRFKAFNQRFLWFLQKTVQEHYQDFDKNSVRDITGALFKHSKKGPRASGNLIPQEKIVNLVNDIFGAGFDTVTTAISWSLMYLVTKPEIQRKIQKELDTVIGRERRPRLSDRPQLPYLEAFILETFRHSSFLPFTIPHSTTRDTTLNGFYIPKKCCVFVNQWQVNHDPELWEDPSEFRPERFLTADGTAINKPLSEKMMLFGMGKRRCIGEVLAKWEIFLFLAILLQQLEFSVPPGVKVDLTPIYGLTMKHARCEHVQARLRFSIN

Cytochrome P450 3A4 = Cytochrome P450 3A4 (Homo sapiens, UniProt P08684);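 also: CYP3A4 tested as one member of a cytochrome P450 panel screen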
Cytochrome P450 3A4, sequence (P08684 whole entry): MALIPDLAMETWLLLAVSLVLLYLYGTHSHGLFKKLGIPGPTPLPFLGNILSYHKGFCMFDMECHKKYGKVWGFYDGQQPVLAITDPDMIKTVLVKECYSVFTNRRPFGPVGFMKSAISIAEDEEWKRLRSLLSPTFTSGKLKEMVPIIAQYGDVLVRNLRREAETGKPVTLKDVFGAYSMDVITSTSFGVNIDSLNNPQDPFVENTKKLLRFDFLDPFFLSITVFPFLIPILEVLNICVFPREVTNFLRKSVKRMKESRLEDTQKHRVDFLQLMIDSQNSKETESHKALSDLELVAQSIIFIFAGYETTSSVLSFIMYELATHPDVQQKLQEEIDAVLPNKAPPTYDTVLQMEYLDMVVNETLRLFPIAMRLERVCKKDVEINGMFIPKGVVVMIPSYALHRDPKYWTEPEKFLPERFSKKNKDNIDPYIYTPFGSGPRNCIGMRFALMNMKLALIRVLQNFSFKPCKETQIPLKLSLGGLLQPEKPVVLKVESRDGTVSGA

[7] = NIH-3T3 fibroblast cytotoxicity, dose response, cytotoxicity control, cell-based, fluorescence, Alamar Blue, secondary assay (AID 2327); format: functional;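 also: NIH-3T3 mouse fibroblasts cultured with fluconazole at 8 µg/mL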
[8] = fluconazole-exposed Candida albicans growth modulators – fluorescence, retest, confirmation (AID 2467); format: functional, cell-based
[9] = biological target: T4, Serine/threonine-protein phosphatase (Candida dubliniensis (strain CD36 / CBS 7987 / NCPF 3949 / NRRLY-17841) (Yeast), UniProt B9W6M3); assay: blockers of CaCl2-induced CDRE-lacZ signaling – S. cerevisiae, luminescence, secondary, dose response (AID 2388); format: functional, cell-based;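 also: yeast reporter cells carrying a calcineurin-responsive lacZ construct stimulated with calcium chloride; luminescent beta-galactosidase reporter signal in whole cells rather than isolated phosphatase activity; potency for inhibition where a drop in reporter signal means calcineurin blockade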
T4 sequence (B9W6M3 whole entry): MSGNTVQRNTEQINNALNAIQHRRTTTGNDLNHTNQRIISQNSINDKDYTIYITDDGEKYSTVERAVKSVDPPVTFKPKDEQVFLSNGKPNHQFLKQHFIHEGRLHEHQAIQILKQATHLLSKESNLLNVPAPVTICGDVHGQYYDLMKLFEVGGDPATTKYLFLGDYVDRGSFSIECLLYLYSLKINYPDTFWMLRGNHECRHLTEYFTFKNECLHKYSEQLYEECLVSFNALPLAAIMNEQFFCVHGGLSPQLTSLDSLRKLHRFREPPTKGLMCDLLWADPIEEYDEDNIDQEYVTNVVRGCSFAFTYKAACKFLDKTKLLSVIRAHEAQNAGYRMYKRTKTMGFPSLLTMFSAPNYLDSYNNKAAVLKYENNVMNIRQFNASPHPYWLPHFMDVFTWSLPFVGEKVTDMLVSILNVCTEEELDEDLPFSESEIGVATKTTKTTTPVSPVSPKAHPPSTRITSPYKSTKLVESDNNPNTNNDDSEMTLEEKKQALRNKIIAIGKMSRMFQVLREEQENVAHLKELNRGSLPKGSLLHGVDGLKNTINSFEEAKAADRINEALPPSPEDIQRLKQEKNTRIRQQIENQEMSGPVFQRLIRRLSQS

[10] = biological target: ATP-dependent molecular chaperone HSP82 (Candida albicans (strain WO-1) (Yeast), UniProt C4YTQ8); assay: steroid-induced GRE reporter decrease in yeast – S. cerevisiae, luminescence, Hsp90 inhibitor project, dose response (AID 2400); format: functional, cell-based;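 also: beta-galactosidase luminescence from glucocorticoid response element reporter as proxy for Hsp90 function; inhibitor potency where signal loss means Hsp90 inhibition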
ATP-dependent molecular chaperone HSP82, sequence (C4YTQ8 whole entry): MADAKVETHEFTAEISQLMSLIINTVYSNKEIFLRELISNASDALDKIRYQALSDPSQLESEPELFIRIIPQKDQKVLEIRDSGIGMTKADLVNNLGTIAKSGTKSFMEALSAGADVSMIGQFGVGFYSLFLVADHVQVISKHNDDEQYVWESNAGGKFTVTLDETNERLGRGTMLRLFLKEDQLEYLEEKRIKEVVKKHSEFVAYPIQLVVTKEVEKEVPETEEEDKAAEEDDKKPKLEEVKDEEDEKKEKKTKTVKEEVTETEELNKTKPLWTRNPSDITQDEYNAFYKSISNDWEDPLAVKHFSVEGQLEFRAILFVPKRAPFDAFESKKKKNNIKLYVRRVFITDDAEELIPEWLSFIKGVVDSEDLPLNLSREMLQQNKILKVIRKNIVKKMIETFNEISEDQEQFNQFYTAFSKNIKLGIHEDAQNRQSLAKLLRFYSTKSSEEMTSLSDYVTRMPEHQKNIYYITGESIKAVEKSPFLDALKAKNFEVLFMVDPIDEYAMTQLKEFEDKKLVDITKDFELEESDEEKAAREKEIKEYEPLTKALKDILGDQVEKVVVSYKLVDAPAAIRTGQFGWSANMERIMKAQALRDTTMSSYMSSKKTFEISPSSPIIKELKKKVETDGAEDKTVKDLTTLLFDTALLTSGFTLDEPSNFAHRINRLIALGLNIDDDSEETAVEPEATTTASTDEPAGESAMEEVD

[11] = biological target: T5, Voltage-gated N-type calcium channel alpha-1B subunit/Amyloid beta A4 precursor protein-binding family A member 1 (Homo sapiens, UniProt Q00975+Q02410); format: protein assay
T5 sequence (Q00975 whole entry): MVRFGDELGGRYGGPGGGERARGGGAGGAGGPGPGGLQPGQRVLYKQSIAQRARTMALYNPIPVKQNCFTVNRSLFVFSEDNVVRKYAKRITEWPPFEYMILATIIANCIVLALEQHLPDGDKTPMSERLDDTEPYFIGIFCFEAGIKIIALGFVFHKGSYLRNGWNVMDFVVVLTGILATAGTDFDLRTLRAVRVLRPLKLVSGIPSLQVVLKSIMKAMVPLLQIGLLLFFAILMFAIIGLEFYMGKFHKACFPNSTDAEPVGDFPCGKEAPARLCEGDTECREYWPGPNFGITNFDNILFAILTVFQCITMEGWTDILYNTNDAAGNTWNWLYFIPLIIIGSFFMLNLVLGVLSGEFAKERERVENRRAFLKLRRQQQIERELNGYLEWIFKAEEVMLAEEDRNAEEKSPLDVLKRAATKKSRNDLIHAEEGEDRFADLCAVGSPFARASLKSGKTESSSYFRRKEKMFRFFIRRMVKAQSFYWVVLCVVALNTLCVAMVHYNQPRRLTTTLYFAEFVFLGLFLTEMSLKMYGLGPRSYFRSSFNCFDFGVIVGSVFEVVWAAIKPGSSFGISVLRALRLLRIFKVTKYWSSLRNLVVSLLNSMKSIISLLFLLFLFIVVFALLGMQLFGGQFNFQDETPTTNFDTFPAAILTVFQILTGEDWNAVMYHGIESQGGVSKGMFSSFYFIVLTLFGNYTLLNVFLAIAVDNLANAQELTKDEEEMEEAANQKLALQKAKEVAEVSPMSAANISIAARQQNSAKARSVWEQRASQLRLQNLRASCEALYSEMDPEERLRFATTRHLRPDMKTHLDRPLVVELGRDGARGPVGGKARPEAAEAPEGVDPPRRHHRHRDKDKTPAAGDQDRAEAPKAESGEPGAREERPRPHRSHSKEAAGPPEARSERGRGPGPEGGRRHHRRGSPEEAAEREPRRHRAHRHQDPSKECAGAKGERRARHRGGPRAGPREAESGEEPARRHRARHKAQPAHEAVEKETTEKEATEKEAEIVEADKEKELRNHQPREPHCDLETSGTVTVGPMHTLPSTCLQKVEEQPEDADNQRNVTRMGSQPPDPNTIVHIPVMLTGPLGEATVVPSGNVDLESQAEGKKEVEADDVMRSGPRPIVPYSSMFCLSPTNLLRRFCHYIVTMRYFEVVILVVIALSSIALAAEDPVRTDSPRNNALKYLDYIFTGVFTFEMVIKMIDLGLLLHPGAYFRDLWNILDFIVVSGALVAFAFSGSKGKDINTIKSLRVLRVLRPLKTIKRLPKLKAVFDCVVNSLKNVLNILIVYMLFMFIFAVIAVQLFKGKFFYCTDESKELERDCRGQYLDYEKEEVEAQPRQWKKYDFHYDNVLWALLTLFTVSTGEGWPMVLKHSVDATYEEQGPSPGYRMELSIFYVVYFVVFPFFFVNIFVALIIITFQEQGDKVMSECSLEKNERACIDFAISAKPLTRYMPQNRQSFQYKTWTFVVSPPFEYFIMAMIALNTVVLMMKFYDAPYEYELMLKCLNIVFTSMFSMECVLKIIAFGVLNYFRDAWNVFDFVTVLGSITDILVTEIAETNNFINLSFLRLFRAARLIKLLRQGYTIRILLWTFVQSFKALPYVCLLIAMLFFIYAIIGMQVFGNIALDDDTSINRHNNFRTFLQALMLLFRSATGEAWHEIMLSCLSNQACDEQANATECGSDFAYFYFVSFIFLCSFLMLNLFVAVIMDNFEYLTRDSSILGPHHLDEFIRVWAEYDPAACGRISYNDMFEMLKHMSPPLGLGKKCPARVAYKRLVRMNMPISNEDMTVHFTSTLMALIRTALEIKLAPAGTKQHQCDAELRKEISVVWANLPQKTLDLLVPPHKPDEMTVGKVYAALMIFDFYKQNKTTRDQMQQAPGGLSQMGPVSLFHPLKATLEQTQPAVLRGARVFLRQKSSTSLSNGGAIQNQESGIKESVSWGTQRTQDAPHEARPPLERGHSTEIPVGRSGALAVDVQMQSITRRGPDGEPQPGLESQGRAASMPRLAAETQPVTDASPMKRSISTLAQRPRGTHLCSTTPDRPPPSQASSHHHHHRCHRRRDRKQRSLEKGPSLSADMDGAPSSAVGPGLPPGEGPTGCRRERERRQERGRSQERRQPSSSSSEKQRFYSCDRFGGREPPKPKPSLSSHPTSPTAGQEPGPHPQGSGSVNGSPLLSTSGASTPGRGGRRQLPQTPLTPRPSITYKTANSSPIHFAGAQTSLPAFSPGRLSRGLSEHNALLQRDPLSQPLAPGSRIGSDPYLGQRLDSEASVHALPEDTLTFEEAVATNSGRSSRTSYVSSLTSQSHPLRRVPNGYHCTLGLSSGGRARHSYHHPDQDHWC
T5 sequence (Q02410 whole entry): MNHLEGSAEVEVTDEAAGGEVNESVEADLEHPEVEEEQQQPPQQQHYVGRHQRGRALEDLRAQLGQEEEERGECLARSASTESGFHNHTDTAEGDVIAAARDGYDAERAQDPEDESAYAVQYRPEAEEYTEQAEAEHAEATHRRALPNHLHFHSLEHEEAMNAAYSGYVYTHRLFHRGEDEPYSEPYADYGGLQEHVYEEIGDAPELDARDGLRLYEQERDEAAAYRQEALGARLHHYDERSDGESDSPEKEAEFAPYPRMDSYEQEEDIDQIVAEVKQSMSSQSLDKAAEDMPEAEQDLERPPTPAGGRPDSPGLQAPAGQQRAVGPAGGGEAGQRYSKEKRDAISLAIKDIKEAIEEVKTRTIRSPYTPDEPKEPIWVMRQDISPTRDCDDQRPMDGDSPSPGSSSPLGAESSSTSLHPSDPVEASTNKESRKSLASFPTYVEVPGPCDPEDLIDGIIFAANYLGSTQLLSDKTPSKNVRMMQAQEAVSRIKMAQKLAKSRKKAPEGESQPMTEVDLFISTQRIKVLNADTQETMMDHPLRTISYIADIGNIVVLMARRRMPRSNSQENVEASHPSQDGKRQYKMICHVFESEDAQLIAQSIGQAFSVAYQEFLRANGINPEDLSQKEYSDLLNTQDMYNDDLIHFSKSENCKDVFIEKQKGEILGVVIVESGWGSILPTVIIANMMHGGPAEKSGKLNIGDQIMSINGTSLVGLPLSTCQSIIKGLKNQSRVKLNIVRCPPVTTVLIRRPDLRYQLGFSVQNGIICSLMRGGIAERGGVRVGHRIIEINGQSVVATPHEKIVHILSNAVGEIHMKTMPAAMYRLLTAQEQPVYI

[12] = biological target: T5, Voltage-gated N-type calcium channel alpha-1B subunit/Amyloid beta A4 precursor protein-binding family A member 1; format: protein assay; remark: listed apart in the source
Escherichia coli [13] = assay: microbe, parasite or virus in culture
[14] = viability of uninfected HEp-2 cells – cell-based, HTS, cytotoxicity control for RSV inhibitor project, dose response (AID 2410); format: functional; conditions: human respiratory syncytial virus
[15] = luciferase reporter signal suppression in cells – H4 neuroglioma cells, luminescence, dose response (AID 1990); format: functional, cell-based
[16] = Luminescence Cell-Based Dose Response HTS to Identify Inhibitors of 5'UTR Stem-Loop Driven Prion Protein mRNA Translation in H4 Neuroglioblastoma Cells. [Related pubchem assays: 1827 (Project Summary), 1813 (Primary HTS)]; format: functional
Vero [17] = assay: mammalian cell viability reduction – secondary assay, cytotoxicity control for West Nile virus antiviral project, dose response (AID 1650); format: functional; conditions: Chlorocebus sabaeus
[18] = alpha-synuclein stem-loop luciferase translation blockers – H4 neuroglioma cells, luminescence, confirmation (AID 1988); format: functional, cell-based
Escherichia coli [19] = assay: microbe, parasite or virus in culture; remark: listed apart in the source

## CCn1c(=O)n(Cc2ccccc2C)c(=O)n([C@@H](Cc2ccccc2)C(=O)O)c1=O
[1]
  IC50: > 100 µM (not active)
[2]
  IC50: > 100 µM (not active)
[3]
  IC50: > 100 µM (inactive)
[4]
  IC50: > 100 µM (inactive)

## S=C1SCN(CCN2CCOCC2)CN1Cc1ccccc1
Vero [5]
  IC50: > 25 µM (active)
Vero [6]
  CC50: 24.4 µM (active)
Cytochrome P450 1A2
  AC50: 6.31 µM (inconclusive)
Cytochrome P450 3A4
  AC50: 28.2 µM (inconclusive)

## C=CCN(CC=C)Cc1c(O)ccc2c(=O)c(-c3ccccc3)coc12
[7]
  EC50: 131 µM (active)
[8]
  EC50: < 0.03 µM (active)
[9]
  EC50: > 180 µM (inactive)
[10]
  EC50: > 150 µM (inactive)

## O=C(O)CCc1ccc(-c2cccs2)o1
[11]
  IC50: 21.3 µM (active)
[12]
  IC50: 3.13 µM (active)
Escherichia coli [13]
  AC50: > 380 µM (inactive)

## O=S(=O)(c1cccs1)N1CCN(c2ccnc3cc(Cl)ccc23)CC1
[14]
  CC50: 14.3 µM (active)
[15]
  EC50: 13.5 µM (active)
[16]
  EC50: 13.1 µM (active)
Vero [17]
  CC50: 30 µM (active)
[18]
  EC50: > 120 µM (not active)
Vero [5]
  IC50: > 25 µM (active)
Vero [6]
  CC50: 22 µM (active)

## O=C(CSCc1ccc(Cl)cc1)Nc1ccc(-c2nnc(-c3ccccc3)o2)cc1
Escherichia coli [19]
  AC50: 23.9 µM (active)
Escherichia coli [13]
  AC50: 58.8 µM (active)
